Source: US20230190735A1 (TFF Pharmaceuticals, Inc., priority 2021, published 2023)
Where two headings read alike, the source gives them in different places.

What was measured:
CYP3A [1] = biological target: CYP3A (Homo sapiens, UniProt P08684); settings: in vitro studies; CYP3A4; cited from earlier work
[2] = cited from earlier work; for reduction of mean AUC with high-fat meals: multiple doses
CYP2C9 = CYP2C9 (Homo sapiens, UniProt P11712); settings: in vitro studies; cited from earlier work
[3] = major metabolite of voriconazole; cited from earlier work
[4] = independent of plasma concentration (approx. 0.9-15 μg/mL); cited from earlier work
CYP3A [5] = settings: CYP3A; total drug; Ki values based on Jeong 2009; cited from earlier work
CYP2B6 = biological target: T1, CYP2B6 (Homo sapiens, UniProt P20813); settings: total drug, Ki values based on Jeong 2009; cited from earlier work
T1 sequence (P20813 1-491): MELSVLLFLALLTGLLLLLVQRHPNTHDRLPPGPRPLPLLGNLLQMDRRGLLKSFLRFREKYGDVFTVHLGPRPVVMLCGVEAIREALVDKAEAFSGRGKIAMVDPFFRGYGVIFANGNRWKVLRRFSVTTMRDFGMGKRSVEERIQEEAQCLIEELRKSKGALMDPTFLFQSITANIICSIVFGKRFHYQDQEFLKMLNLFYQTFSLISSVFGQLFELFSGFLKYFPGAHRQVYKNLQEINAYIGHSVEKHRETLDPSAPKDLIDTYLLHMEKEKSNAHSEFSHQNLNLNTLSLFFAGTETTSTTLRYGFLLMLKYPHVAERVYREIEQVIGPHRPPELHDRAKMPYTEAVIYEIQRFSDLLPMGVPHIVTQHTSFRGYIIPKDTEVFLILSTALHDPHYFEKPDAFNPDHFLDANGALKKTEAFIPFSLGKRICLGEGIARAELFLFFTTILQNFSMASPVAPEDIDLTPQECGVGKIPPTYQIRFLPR

[6] = PK of systemically administered (oral or IV) voriconazole, VFEND package insert and literature; assay type: in vivo, human; settings: Imax = Cmax/MW
[7] = 3 mg/kg IV q12h, geometric mean (% CV)
[8] = 4 mg/kg IV q12h, geometric mean (% CV)
[9] = 6 mg/kg IV (loading dose), geometric mean (% CV)
[10] = 200 mg oral q12h, geometric mean (% CV)
[11] = 300 mg oral q12h, geometric mean (% CV)
[12] = 400 mg oral (loading dose), geometric mean (% CV)

Chain of CYP2C9 (P11712 whole entry): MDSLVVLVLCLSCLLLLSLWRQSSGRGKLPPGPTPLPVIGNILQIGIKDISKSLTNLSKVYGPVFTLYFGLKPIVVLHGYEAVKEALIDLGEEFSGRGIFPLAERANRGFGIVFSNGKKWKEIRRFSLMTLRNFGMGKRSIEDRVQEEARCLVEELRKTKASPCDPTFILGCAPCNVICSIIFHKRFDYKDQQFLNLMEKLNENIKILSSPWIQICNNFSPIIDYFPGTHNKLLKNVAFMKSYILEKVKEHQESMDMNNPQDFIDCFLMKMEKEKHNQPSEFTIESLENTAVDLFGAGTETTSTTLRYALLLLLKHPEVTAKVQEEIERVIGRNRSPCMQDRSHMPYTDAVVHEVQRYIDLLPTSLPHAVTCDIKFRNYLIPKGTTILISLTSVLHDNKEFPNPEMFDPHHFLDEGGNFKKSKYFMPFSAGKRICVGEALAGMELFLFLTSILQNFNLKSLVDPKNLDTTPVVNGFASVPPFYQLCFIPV
Chain of CYP3A (Homo sapiens, UniProt P08684) (P08684 2-503): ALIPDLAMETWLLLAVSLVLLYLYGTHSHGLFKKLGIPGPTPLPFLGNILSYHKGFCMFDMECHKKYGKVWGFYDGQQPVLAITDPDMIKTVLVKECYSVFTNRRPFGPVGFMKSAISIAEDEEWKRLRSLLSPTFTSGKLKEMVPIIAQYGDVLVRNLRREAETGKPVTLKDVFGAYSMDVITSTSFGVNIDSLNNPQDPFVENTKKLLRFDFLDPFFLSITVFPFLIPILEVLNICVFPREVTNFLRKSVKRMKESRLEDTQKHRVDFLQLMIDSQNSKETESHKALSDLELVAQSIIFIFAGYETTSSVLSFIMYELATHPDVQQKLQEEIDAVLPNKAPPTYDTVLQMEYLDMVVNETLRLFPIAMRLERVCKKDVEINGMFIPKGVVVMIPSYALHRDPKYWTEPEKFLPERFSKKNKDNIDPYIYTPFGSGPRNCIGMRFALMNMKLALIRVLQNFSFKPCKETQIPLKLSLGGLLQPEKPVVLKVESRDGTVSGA

Question: Which results are given for `C[C@@H](c1nc[n+]([O-])cc1F)[C@](O)(Cn1cncn1)c1ccc(F)cc1F` [N-oxide]?
Answer: inhibition of metabolic activity of CYP3A4 (CYP3A [1]): inhibits; share of circulating radiolabeled metabolites in plasma ([2]; after radiolabeled voriconazole): 72%; inhibition of metabolic activity of CYP2C9 (CYP2C9): inhibits; antifungal activity [3]: minimal antifungal activity

Question: For `C[C@@H](c1ncncc1F)[C@](O)(Cn1cncn1)c1ccc(F)cc1F` [Voriconazole, (2R,3S)-2-(2,4-difluro-phenyl)-3-(5-flouro-4-pyrimidinyl)-1 (1H-1,2,4-triazol-1-yl)2-butanol], which Plasma protein binding [4] is on record?
Answer: The Plasma protein binding was 58%.

Question: What about the Ki (CYP3A [5]) of the same compound?
Answer: The Ki was 0.66 µM.

Question: What about the Ki (CYP2B6) of the same compound?
Answer: Its Ki is under 0.5 µM.

Question: What about the AUC12 [2, 7] of the same compound?
Answer: The AUC12 was 13.7 (53) μg:h/mL.

Question: And the Cmax [2, 7]?
Answer: Its Cmax is 3.03 (25) μg/mL.

Question: What about the AUC12 [2, 8] of the same compound?
Answer: The AUC12 was 33.9 (54) μg:h/mL.

Question: What about the Cmax [2, 8] of the same compound?
Answer: Its Cmax is 4.77 (36) μg/mL.

Question: And the AUC12 [2, 9]?
Answer: The AUC12 was 13.9 (32) μg:h/mL.

Question: What about the Cmax [2, 9] of the same compound?
Answer: The Cmax was 3.13 (20) μg/mL.

Question: What about the AUC12 ([2]; 200 mg oral q12h, adults, geometric mean (% CV)) of the same compound?
Answer: The AUC12 was 12.4 (78) μg · h/mL.

Question: What about the AUC12 [2, 10] of the same compound?
Answer: Its AUC12 is 12.4 (78) μg:h/mL.

Question: And the Cmax [2, 10]?
Answer: The Cmax was 2.31 (48) μg/mL.

Question: And the AUC12 ([2]; 300 mg oral q12h, adults, geometric mean (% CV))?
Answer: Its AUC12 is 34.0 (53) μg · h/mL.

Question: What about the AUC12 [2, 11] of the same compound?
Answer: The AUC12 was 34.0 (53) μg:h/mL.

Question: And the Cmax [2, 11]?
Answer: Its Cmax is 4.74 (35) μg/mL.

Question: And the AUC12 ([2]; 400 mg oral (loading dose), adults, geometric mean (% CV))?
Answer: The AUC12 was 9.31 (38) μg · h/mL.

Question: What about the AUC12 [2, 12] of the same compound?
Answer: Its AUC12 is 9.31 (38) μg:h/mL.

Question: And the Cmax [2, 12]?
Answer: Its Cmax is 2.30 (19) μg/mL.

Question: And the “reduction of mean AUC with high-fat meals” value ([2]; oral suspension)?
Answer: Its value is 37%.

Question: What about the “reduction of mean AUC with high-fat meals” value ([2]; tablet) of the same compound?
Answer: Its value is 24%.

Question: What about the Cmax ([2]; oral 200 mg dose) of the same compound?
Answer: Its Cmax is 2310 ng/mL.

Question: And the “volume of distribution at steady state” value ([2]; oral or IV administration)?
Answer: The value was 4.6 L/kg.

Question: And the oral bioavailability ([2]; population PK analysis, healthy subjects (N=207))?
Answer: Its oral bioavailability is 96%.

Question: And the Imax oral ([6]; based on 200 mg q12h from VFEND label)?
Answer: Its Imax oral is 6.61 µM.

Question: What about the Imax oral ([6]; based on Cmax from Anderson 2017) of the same compound?
Answer: Its Imax oral is 3.50 µM.
